Laboratory results from ChEMBL document CHEMBL1909046, “DrugMatrix in vitro pharmacology data”.
pIC50, pKi: −log10 of the molar value.

Key:
[1] = DRUGMATRIX: Platelet-Derived Growth Factor (PDGF) radioligand binding (ligand: [125I] PDGF); type: cell-based; settings: nih3t3; Not Active = under 50% inhibition at 10 µM
[2] = target: 5-hydroxytryptamine receptor 6 (Homo sapiens, UniProt P50406); type: cell membranes, HeLa, Membrane; settings: for IC50: hela; on all read-outs here: in other assays of this panel Not Active means under 50% inhibition at 10 µM
[3] = target: Sodium-dependent noradrenaline transporter (Homo sapiens, UniProt P23975); experiment: DRUGMATRIX: Norepinephrine Transporter radioligand binding (ligand: [125I] RTI-55); type: cell membranes, MDCK, Membrane; settings: Not Active = under 50% inhibition at 10 µM; for IC50: mdck
[4] = target: Protein phosphatase 3 catalytic subunit alpha (Homo sapiens, UniProt Q08209); set-up: species or system Escherichia coli;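 further: inhibition of calcineurin (PP2B) enzyme activity, measured with DiFMUP as the substrate; in other assays of this panel Not Active means under 50% inhibition at 10 µM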
[5] = target: Beta-1 adrenergic receptor (Homo sapiens, UniProt P08588); experiment: DRUGMATRIX: Adrenergic beta1 radioligand binding (ligand: [125I] Cyanopindolol); type: cell membranes, CHO-K1, Membrane; settings: Not Active = under 50% inhibition at 10 µM; for IC50: cho-k1
[6] = target: T1, Neuropeptide Y receptor type 2 (Homo sapiens, UniProt P49146); type: cell membranes, KAN-TS, Membrane; settings: kan-ts; further: in other assays of this panel Not Active means under 50% inhibition at 10 µM
T1 sequence (P49146 whole entry): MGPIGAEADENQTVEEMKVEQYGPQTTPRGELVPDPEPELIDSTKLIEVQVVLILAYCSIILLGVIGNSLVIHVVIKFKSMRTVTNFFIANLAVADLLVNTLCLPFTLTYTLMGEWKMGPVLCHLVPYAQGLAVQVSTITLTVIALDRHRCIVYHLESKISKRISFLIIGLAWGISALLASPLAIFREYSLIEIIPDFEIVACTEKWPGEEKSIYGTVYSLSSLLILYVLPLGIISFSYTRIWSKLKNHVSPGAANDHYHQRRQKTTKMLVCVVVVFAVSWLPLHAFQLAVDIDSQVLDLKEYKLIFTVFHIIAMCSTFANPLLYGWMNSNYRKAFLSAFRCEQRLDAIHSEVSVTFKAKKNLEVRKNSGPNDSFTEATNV

Chain of Sodium-dependent noradrenaline transporter (P23975 whole entry): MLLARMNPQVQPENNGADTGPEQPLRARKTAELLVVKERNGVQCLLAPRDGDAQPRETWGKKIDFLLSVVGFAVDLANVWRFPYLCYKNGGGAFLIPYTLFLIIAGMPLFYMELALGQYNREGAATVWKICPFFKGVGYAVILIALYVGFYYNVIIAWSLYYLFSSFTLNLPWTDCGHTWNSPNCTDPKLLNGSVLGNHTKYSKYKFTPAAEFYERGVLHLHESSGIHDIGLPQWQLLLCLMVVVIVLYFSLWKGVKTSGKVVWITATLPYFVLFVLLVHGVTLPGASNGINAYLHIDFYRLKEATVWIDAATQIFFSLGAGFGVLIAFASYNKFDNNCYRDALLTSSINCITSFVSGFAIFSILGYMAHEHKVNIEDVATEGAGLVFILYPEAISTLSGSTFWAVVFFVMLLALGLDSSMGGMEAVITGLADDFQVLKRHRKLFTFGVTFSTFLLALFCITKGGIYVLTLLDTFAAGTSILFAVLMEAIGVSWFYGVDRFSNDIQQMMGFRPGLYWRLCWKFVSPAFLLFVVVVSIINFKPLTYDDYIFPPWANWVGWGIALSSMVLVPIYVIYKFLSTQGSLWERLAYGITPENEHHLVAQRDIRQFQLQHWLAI
Chain of 5-hydroxytryptamine receptor 6 (P50406 whole entry): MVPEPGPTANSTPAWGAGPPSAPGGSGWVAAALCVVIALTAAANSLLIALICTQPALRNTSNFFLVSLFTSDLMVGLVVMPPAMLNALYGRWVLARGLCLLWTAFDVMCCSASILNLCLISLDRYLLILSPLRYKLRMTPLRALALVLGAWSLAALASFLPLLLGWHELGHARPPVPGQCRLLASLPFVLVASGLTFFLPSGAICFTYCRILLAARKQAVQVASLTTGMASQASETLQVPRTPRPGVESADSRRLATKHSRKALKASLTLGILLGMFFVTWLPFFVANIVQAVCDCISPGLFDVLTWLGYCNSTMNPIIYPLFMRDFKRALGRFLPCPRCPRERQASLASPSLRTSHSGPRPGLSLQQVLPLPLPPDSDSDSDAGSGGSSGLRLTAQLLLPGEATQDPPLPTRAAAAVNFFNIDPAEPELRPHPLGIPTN
Chain of Beta-1 adrenergic receptor (P08588 whole entry): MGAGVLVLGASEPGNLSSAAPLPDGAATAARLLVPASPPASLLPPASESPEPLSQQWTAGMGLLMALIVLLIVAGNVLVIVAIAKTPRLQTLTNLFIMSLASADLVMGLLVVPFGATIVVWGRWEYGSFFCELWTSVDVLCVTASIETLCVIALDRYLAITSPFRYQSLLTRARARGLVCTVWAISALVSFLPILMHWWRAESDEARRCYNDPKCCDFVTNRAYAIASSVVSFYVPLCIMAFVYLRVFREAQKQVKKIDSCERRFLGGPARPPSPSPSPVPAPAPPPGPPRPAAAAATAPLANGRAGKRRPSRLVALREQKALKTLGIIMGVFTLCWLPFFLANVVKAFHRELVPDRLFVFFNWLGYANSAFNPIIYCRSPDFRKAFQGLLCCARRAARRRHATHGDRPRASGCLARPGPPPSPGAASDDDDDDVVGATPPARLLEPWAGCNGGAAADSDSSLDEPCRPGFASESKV

O=C(c1ccccc1C(F)(F)F)N1CCC(Cc2ccccc2)CC1
Not Active: IC50 [1] | Ki [1] | IC50 [2] | IC50 [3] | IC50 [4] | IC50 [5] | IC50 [6]

O=C/C=C/c1ccccc1
Not Active: IC50 [1] | Ki [1] | IC50 [2] | IC50 [3] | IC50 [4] | IC50 [5] | IC50 [6]

Nc1ccc2c3c(cccc13)C(=O)NC2=O
Not Active: IC50 [1] | Ki [1] | IC50 [2] | IC50 [3] | IC50 [4] | IC50 [5] | IC50 [6]

COc1ccc(C(=O)N2CCCC2=O)cc1
Not Active: IC50 [1] | Ki [1] | IC50 [2] | IC50 [3] | IC50 [4] | IC50 [5] | IC50 [6]

O=c1cnn([C@@H]2O[C@H](CO)[C@@H](O)[C@H]2O)c(=O)[nH]1 [6-AZAURIDINE]
Not Active: IC50 [1] | Ki [1] | IC50 [2] | IC50 [3] | IC50 [4] | IC50 [5] | IC50 [6]

CC[C@H](C)[C@H]1O[C@]2(C=C[C@@H]1C)C[C@@H]1C[C@@H](C/C=C(\C)[C@@H](O[C@H]3C[C@H](OC)[C@@H](O[C@H]4C[C@H](OC)[C@@H](O)[C@H](C)O4)[C@H](C)O3)[C@@H](C)/C=C/C=C3\CO[C@@H]4[C@H](O)C(C)=C[C@@H](C(=O)O1)[C@]34O)O2.CO[C@H]1C[C@H](O[C@H]2[C@H](C)O[C@@H](O[C@@H]3/C(C)=C/C[C@@H]4C[C@@H](C[C@]5(C=C[C@H](C)[C@@H](C(C)C)O5)O4)OC(=O)[C@@H]4C=C(C)[C@@H](O)[C@H]5OC/C(=C\C=C\[C@@H]3C)[C@]54O)C[C@@H]2OC)O[C@@H](C)[C@@H]1O [ABAMECTIN]
Not Active: IC50 [1] | Ki [1] | IC50 [2] | IC50 [3] | IC50 [4] | IC50 [5] | IC50 [6]

NCCCC(O)(P(=O)(O)O)P(=O)(O)O [ALENDRONIC ACID]
Not Active: IC50 [1] | Ki [1] | IC50 [2] | IC50 [3] | IC50 [4] | IC50 [5] | IC50 [6]

Cc1nnc2n1-c1ccc(Cl)cc1C(c1ccccc1)=NC2 [ALPRAZOLAM]
Not Active: IC50 [1] | Ki [1] | IC50 [2] | IC50 [3] | IC50 [4] | IC50 [5] | IC50 [6]

Cn1c(=O)c2[nH]cnc2n(C)c1=O.Cn1c(=O)c2[nH]cnc2n(C)c1=O.NCCN [AMINOPHYLLINE]
Not Active: IC50 [1] | Ki [1] | IC50 [2] | IC50 [3] | IC50 [4] | IC50 [5] | IC50 [6]

CCC1(CCC(C)C)C(=O)NC(=O)NC1=O [AMOBARBITAL]
Not Active: IC50 [1] | Ki [1] | IC50 [2] | IC50 [3] | IC50 [4] | IC50 [5] | IC50 [6]

CC1(C)S[C@@H]2[C@H](NC(=O)[C@H](N)c3ccccc3)C(=O)N2[C@H]1C(=O)O [AMPICILLIN]
Not Active: IC50 [1] | Ki [1] | IC50 [2] | IC50 [4] | IC50 [5] | IC50 [6]

COc1ccc(C2C(=O)c3ccccc3C2=O)cc1 [ANISINDIONE]
Not Active: IC50 [1] | Ki [1] | IC50 [2] | IC50 [3] | IC50 [4] | IC50 [5] | IC50 [6]

O=C1O[C@H]([C@@H](O)CO)C(O)=C1O [ASCORBIC ACID]
Not Active: IC50 [1] | Ki [1] | IC50 [2] | IC50 [3] | IC50 [4] | IC50 [5] | IC50 [6]

CN1[C@@H]2CC[C@H]1C[C@@H](OC(=O)C(CO)c1ccccc1)C2 (stereo partly specified) [ATROPINE]
Not Active: IC50 [1] | Ki [1] | IC50 [2] | IC50 [3] | IC50 [4] | IC50 [5] | IC50 [6]

CC(C(=O)O)c1ccc2oc(-c3ccc(Cl)cc3)nc2c1 (stereo unspecified) [BENOXAPROFEN]
Not Active: IC50 [1] | Ki [1] | IC50 [2] | IC50 [3] | IC50 [4] | IC50 [5] | IC50 [6]

COc1ccc2cc3[n+](cc2c1OC)CCc1cc2c(cc1-3)OCO2.[Cl-] [BERBERINE CHLORIDE]
Not Active: IC50 [1] | Ki [1] | IC50 [2] | IC50 [3] | IC50 [4] | IC50 [5] | IC50 [6]

O=C(O)CCNC(=O)c1ccccc1 [BETAMIPRON]
Not Active: IC50 [1] | Ki [1] | IC50 [2] | IC50 [3] | IC50 [4] | IC50 [5] | IC50 [6]

CC(=O)Oc1ccc(C(c2ccc(OC(C)=O)cc2)c2ccccn2)cc1 [BISACODYL]
Not Active: IC50 [1] | Ki [1] | IC50 [2] | IC50 [3] | IC50 [4] | IC50 [5] | IC50 [6]

Cc1cc2c(OCC(CNC(C)(C)C)OC(=O)c3ccccc3)cccc2[nH]1 (stereo unspecified) [BOPINDOLOL]
Not Active: IC50 [1] | Ki [1] | IC50 [2] | IC50 [3] | IC50 [4] | IC50 [6]
7.33: pIC50 ([5]; read-out: IC50)
7.57: pKi ([5]; read-out: Ki)

Brc1c(NC2=NCCN2)ccc2nccnc12 [BRIMONIDINE]
Not Active: IC50 [1] | Ki [1] | IC50 [2] | IC50 [3] | IC50 [4] | IC50 [5] | IC50 [6]

CN(C)[C@@H]1C(O)=C(C(N)=O)C(=O)[C@@]2(O)C(O)=C3C(=O)c4c(O)ccc(Cl)c4[C@@](C)(O)[C@H]3C[C@@H]12 [CHLORTETRACYCLINE]
Not Active: IC50 [1] | Ki [1] | IC50 [2] | IC50 [3] | IC50 [4] | IC50 [5] | IC50 [6]

CN/C(=N\CCSCc1nc[nH]c1C)NC#N [CIMETIDINE]
Not Active: IC50 [1] | Ki [1] | IC50 [2] | IC50 [3] | IC50 [4] | IC50 [5] | IC50 [6]

COc1cc(N)c(Cl)cc1C(=O)NC1CCN(CCCOc2ccc(F)cc2)CC1OC (stereo unspecified) [CISAPRIDE]
Not Active: IC50 [1] | Ki [1] | IC50 [2] | IC50 [3] | IC50 [4] | IC50 [5] | IC50 [6]

CCC(=O)O[C@]1(C(=O)CCl)[C@@H](C)C[C@H]2[C@@H]3CCC4=CC(=O)C=C[C@]4(C)[C@@]3(F)[C@@H](O)C[C@@]21C [CLOBETASOL PROPIONATE]
Not Active: IC50 [1] | Ki [1] | IC50 [2] | IC50 [3] | IC50 [4] | IC50 [5] | IC50 [6]

O=C1CN=C(c2ccccc2Cl)c2cc([N+](=O)[O-])ccc2N1 [CLONAZEPAM]
Not Active: IC50 [1] | Ki [1] | IC50 [2] | IC50 [3] | IC50 [4] | IC50 [5] | IC50 [6]

Nc1ccn([C@@H]2O[C@H](CO)[C@@H](O)[C@@H]2O)c(=O)n1 [CYTARABINE]
Not Active: IC50 [1] | Ki [1] | IC50 [2] | IC50 [3] | IC50 [4] | IC50 [5] | IC50 [6]

C[C@@H]1C[C@H]2[C@@H]3CCC4=CC(=O)C=C[C@]4(C)[C@@]3(F)[C@@H](O)C[C@]2(C)[C@H]1C(=O)CO [DESOXIMETASONE]
Not Active: IC50 [1] | Ki [1] | IC50 [2] | IC50 [3] | IC50 [4] | IC50 [5] | IC50 [6]

C[C@@H]1C[C@H]2[C@@H]3CCC4=CC(=O)C=C[C@]4(C)[C@@]3(F)[C@@H](O)C[C@]2(C)[C@@]1(O)C(=O)CO [DEXAMETHASONE]
Not Active: IC50 [1] | Ki [1] | IC50 [2] | IC50 [3] | IC50 [4] | IC50 [5] | IC50 [6]

CN(C)CC[C@@H](c1ccc(Cl)cc1)c1ccccn1 [DEXCHLORPHENIRAMINE]
Not Active: IC50 [1] | Ki [1] | IC50 [2] | IC50 [4] | IC50 [5] | IC50 [6]
5.31: pKi ([3]; read-out: Ki)
5.30: pIC50 ([3]; read-out: IC50)

CC(C)NCC(O)COc1cccc2[nH]ccc12 (stereo unspecified) [PINDOLOL]
Not Active: IC50 [1] | Ki [1] | IC50 [2] | IC50 [3] | IC50 [4] | IC50 [6]

CCCNCC(O)COc1ccccc1C(=O)CCc1ccccc1 (stereo unspecified) [PROPAFENONE]
Not Active: IC50 [1] | Ki [1] | IC50 [4] | IC50 [6]
5.73: pIC50 ([2]; read-out: IC50)
6.06: pKi ([2]; read-out: Ki)
